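Grown in 96-well plates, cells were treated for 48 hours with each compound at five concentrations. Insufficient inhibition: endpoint recorded as highest concentration tested. GI50 is the concentration that inhibits growth by half. TGI: total growth inhibition.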
How the values were obtained:
Experiment in all cases: NCI-60 cell line screen, 48 h
[1] = tested on: RXF 393 renal
[2] = tested on: MOLT-4 leukemia
[3] = tested on: A498 renal
[4] = tested on: OVCAR-3 ovarian
[5] = tested on: T-47D breast
[6] = tested on: MALME-3M melanoma
[7] = tested on: SNB-75 CNS
[8] = tested on: UO-31 renal
[9] = tested on: A549 NSCLC
[10] = tested on: HCT-116 colon
[11] = tested on: HS 578T breast
[12] = tested on: MDA-MB-468 breast
[13] = tested on: HOP-62 NSCLC
[14] = tested on: SF-539 CNS
[15] = tested on: NCI-H226 lung
[16] = tested on: NCI-H23 lung
[17] = tested on: SNB-19 CNS
[18] = tested on: EKVX NSCLC
[19] = tested on: KM12 colon
[20] = tested on: HCC-2998 colon
[21] = tested on: K-562 leukemia
[22] = tested on: SN12C renal
[23] = tested on: UACC-62 melanoma
[24] = tested on: OVCAR-4 ovarian
[25] = tested on: SK-MEL-2 melanoma
[26] = tested on: ACHN renal
[27] = tested on: OVCAR-8 ovarian
[28] = tested on: LOX IMVI melanoma
[29] = tested on: TK-10 renal
[30] = tested on: SF-268 CNS
[31] = tested on: HT29 colon
[32] = tested on: HCT-15 colon
[33] = tested on: IGROV1 ovarian
[34] = tested on: DU-145 prostate
[35] = tested on: U251 CNS
[36] = tested on: UACC-257 melanoma
[37] = tested on: CAKI-1 renal
[38] = tested on: M14 melanoma
[39] = tested on: BT-549 breast
[40] = tested on: CCRF-CEM leukemia
[41] = tested on: SW-620 colon
[42] = tested on: MDA-MB-435
[43] = tested on: NCI-H460 lung
[44] = tested on: HL-60(TB) leukemia
[45] = tested on: SF-295 CNS
[46] = tested on: COLO 205 colon
[47] = tested on: SK-MEL-5 melanoma
[48] = tested on: OVCAR-5 ovarian
[49] = tested on: MDA-MB-231 breast
[50] = tested on: NCI-H522 lung
[51] = tested on: NCI/ADR-RES ovarian
[52] = tested on: SR leukemia
[53] = tested on: HOP-92 NSCLC
[54] = tested on: SK-OV-3 ovarian
[55] = tested on: SK-MEL-28 melanoma
[56] = tested on: 786-0 renal
[57] = tested on: PC-3 prostate
[58] = tested on: MCF7 breast

For `COc1ccc(/C=C/C(=O)c2ccc(S(=O)(=O)NCCNc3nc(Nc4ccc(F)cc4)nc(N(C)C)n3)cc2)cc1`, which GI50 [1] is on record?
Its GI50 is 2.59 µM.

What about the TGI [1] of the same compound?
The TGI was 12.3 µM.

And the GI50 [2]?
The GI50 was 3.12 µM.

What about the TGI [2] of the same compound?
Its TGI is 13.2 µM.

What about the GI50 [3] of the same compound?
The GI50 was 10 µM.

And the TGI [3]?
Its TGI is 29.7 µM.

And the GI50 [4]?
Its GI50 is 5.01 µM.

And the TGI [4]?
Its TGI is 19.9 µM.

What about the GI50 [5] of the same compound?
The GI50 was 3.78 µM.

And the TGI [5]?
Its TGI is 89.8 µM.

What about the GI50 [6] of the same compound?
Its GI50 is 10.6 µM.

What about the TGI [6] of the same compound?
Its TGI is 43.9 µM.

And the GI50 [7]?
Its GI50 is 3.57 µM.

And the TGI [7]?
Its TGI is over 100 µM.

What about the GI50 [8] of the same compound?
The GI50 was 3.78 µM.

And the TGI [8]?
The TGI was 99.4 µM.

What about the GI50 [9] of the same compound?
The GI50 was 6.54 µM.

What about the TGI [9] of the same compound?
The TGI was over 100 µM.

And the GI50 [10]?
Its GI50 is 1.86 µM.

And the TGI [10]?
Its TGI is 3.62 µM.

And the GI50 [11]?
Its GI50 is 4.68 µM.

And the TGI [11]?
Its TGI is 44.8 µM.

What about the GI50 [12] of the same compound?
Its GI50 is 2.57 µM.

What about the TGI [12] of the same compound?
Its TGI is 10.3 µM.

And the GI50 [13]?
Its GI50 is 17.1 µM.

What about the TGI [13] of the same compound?
The TGI was over 100 µM.

And the GI50 [14]?
The GI50 was 10.3 µM.

And the TGI [14]?
Its TGI is 23 µM.

And the GI50 [15]?
The GI50 was 3.8 µM.

And the TGI [15]?
Its TGI is 20.4 µM.

And the GI50 [16]?
Its GI50 is 10.4 µM.

What about the TGI [16] of the same compound?
The TGI was 50.5 µM.

What about the GI50 [17] of the same compound?
Its GI50 is 5.58 µM.

And the TGI [17]?
The TGI was 45.5 µM.

What about the GI50 [18] of the same compound?
The GI50 was 4.12 µM.

And the TGI [18]?
The TGI was 22.3 µM.

What about the GI50 [19] of the same compound?
Its GI50 is 4.01 µM.

What about the TGI [19] of the same compound?
Its TGI is 16.7 µM.

And the GI50 [20]?
Its GI50 is 5.47 µM.

And the TGI [20]?
Its TGI is 18 µM.

And the GI50 [21]?
Its GI50 is 3.99 µM.

What about the TGI [21] of the same compound?
Its TGI is over 100 µM.

And the GI50 [22]?
Its GI50 is 3.6 µM.

And the TGI [22]?
The TGI was 13.3 µM.

And the GI50 [23]?
Its GI50 is 4.79 µM.

And the TGI [23]?
The TGI was 19.3 µM.

What about the GI50 [24] of the same compound?
The GI50 was 4.12 µM.

What about the TGI [24] of the same compound?
Its TGI is over 100 µM.

And the GI50 [25]?
Its GI50 is 8.1 µM.

And the TGI [25]?
Its TGI is 22.3 µM.

And the GI50 [26]?
Its GI50 is 3.4 µM.

What about the TGI [26] of the same compound?
The TGI was over 100 µM.

What about the GI50 [27] of the same compound?
Its GI50 is 9.51 µM.

What about the TGI [27] of the same compound?
The TGI was over 100 µM.

What about the GI50 [28] of the same compound?
The GI50 was 3.23 µM.

What about the TGI [28] of the same compound?
The TGI was 11.5 µM.

What about the GI50 [29] of the same compound?
The GI50 was 8.09 µM.

What about the TGI [29] of the same compound?
Its TGI is over 100 µM.

And the GI50 [30]?
The GI50 was 4.43 µM.

And the TGI [30]?
Its TGI is 55.8 µM.

What about the GI50 [31] of the same compound?
The GI50 was 1.83 µM.

What about the TGI [31] of the same compound?
The TGI was 3.73 µM.

What about the GI50 [32] of the same compound?
The GI50 was 2.71 µM.

And the TGI [32]?
Its TGI is 7.07 µM.

And the GI50 [33]?
Its GI50 is 10.8 µM.

What about the TGI [33] of the same compound?
Its TGI is 45.6 µM.

What about the GI50 [34] of the same compound?
The GI50 was 7.54 µM.

And the TGI [34]?
Its TGI is over 100 µM.

And the GI50 [35]?
The GI50 was 6.7 µM.

And the TGI [35]?
Its TGI is 21.5 µM.

And the GI50 [36]?
The GI50 was 13.3 µM.

What about the TGI [36] of the same compound?
Its TGI is 38.4 µM.

What about the GI50 [37] of the same compound?
The GI50 was 3.34 µM.

What about the TGI [37] of the same compound?
The TGI was over 100 µM.

And the GI50 [38]?
Its GI50 is 4.27 µM.

What about the TGI [38] of the same compound?
Its TGI is 19.2 µM.

What about the GI50 [39] of the same compound?
Its GI50 is 13.2 µM.

And the TGI [39]?
The TGI was 27.4 µM.

What about the GI50 [40] of the same compound?
The GI50 was 4.09 µM.

And the TGI [40]?
Its TGI is over 100 µM.

And the GI50 [41]?
The GI50 was 5.42 µM.

What about the TGI [41] of the same compound?
The TGI was 19.7 µM.

What about the GI50 [42] of the same compound?
The GI50 was 5.47 µM.

What about the TGI [42] of the same compound?
Its TGI is 23.4 µM.

And the GI50 [43]?
The GI50 was 4.11 µM.

And the TGI [43]?
Its TGI is 21.6 µM.

And the GI50 [44]?
Its GI50 is 3.6 µM.

What about the TGI [44] of the same compound?
The TGI was 31.5 µM.

What about the GI50 [45] of the same compound?
Its GI50 is 5.05 µM.

And the TGI [45]?
The TGI was 18.7 µM.

And the GI50 [46]?
Its GI50 is 3.46 µM.

What about the TGI [46] of the same compound?
Its TGI is 14.3 µM.

And the GI50 [47]?
Its GI50 is 3.5 µM.

And the TGI [47]?
The TGI was 13.2 µM.

And the GI50 [48]?
Its GI50 is 8.44 µM.

And the TGI [48]?
Its TGI is 45.9 µM.

And the GI50 [49]?
Its GI50 is 2.73 µM.

What about the TGI [49] of the same compound?
Its TGI is 10.5 µM.

And the GI50 [50]?
Its GI50 is 2.55 µM.

And the TGI [50]?
The TGI was 12.5 µM.

What about the GI50 [51] of the same compound?
Its GI50 is 5.66 µM.

And the TGI [51]?
The TGI was 35.5 µM.

And the GI50 [52]?
The GI50 was 2.97 µM.

And the TGI [52]?
Its TGI is 13.2 µM.

What about the GI50 [53] of the same compound?
The GI50 was 3.25 µM.

And the TGI [53]?
Its TGI is 31 µM.

And the GI50 [54]?
Its GI50 is 13.9 µM.

And the TGI [54]?
The TGI was 76.3 µM.

What about the GI50 [55] of the same compound?
The GI50 was 5.23 µM.

What about the TGI [55] of the same compound?
The TGI was 19 µM.

What about the GI50 [56] of the same compound?
Its GI50 is 6.33 µM.

And the TGI [56]?
The TGI was over 100 µM.

And the GI50 [57]?
Its GI50 is 3.5 µM.

And the TGI [57]?
The TGI was over 100 µM.

What about the GI50 [58] of the same compound?
The GI50 was 1.93 µM.

What about the TGI [58] of the same compound?
The TGI was 5.85 µM.

From PubChem BioAssay (NCI)
